Measurements: ChEMBL document CHEMBL4888484, “Replenishing the malaria drug discovery pipeline: Screening and hit evaluation of the MMV Hit Generation Library 1 (HGL1) against asexual blood stage Plasmodium falciparum ,using a nano luciferase reporter read-out” (2022)

What was measured:
Plasmodium falciparum [1] = experiment: Hit confirmation in dose-response curve in NF54 nanoGlo assay, at 72h; type: functional, organism-based, Erythrocyte; design: timepoint 72 hour; conditions: Plasmodium falciparum, NF54, Erythrocyte, 72 h
Plasmodium falciparum [2] = experiment: Hit confirmation in dose-response curve in NF54 nanoGlo assay, at 12h; type: functional, organism-based, Erythrocyte; design: timepoint 12 hour; conditions: Plasmodium falciparum, NF54, Erythrocyte, 12 h
Plasmodium falciparum [3] = experiment: Hit confirmation in dose-response curve in Dd2 pLDH assay, at 72h; type: functional, organism-based; design: timepoint 72 hour; conditions: Dd2, Erythrocyte
[4] = Hit confirmation in dose-response curve in HepG2 cytotoxicity assay, at 72h; type: toxicity, cell-based; design: timepoint 72 hour; conditions: human, HepG2 cells
[5] = Re-testing in dose-response curve in HepG2 cytotoxicity assay, at 72h; type: toxicity, cell-based; design: timepoint 72 hour; conditions: human, HepG2 cells
Plasmodium falciparum [6] = experiment: Hit confirmation in dose-response curve in NF54 pLDH assay, at 72h; type: functional, organism-based; design: timepoint 72 hour; conditions: NF54, Erythrocyte
Plasmodium falciparum [7] = experiment: Re-testing in dose-response curve in 3D7 pLDH assay, at 72h; type: functional, organism-based; design: timepoint 72 hour; conditions: 3D7, Erythrocyte

IC50 (Plasmodium falciparum [1]) | IC50 (Plasmodium falciparum [2]) | IC50 (Plasmodium falciparum [3]) | IC50 (Plasmodium falciparum [6]) | IC50 (Plasmodium falciparum [7]) | SMILES | IC50 at 72 h [4] | IC50 at 72 h [5]
457 nM | > 10000 nM | 741 nM | 1170 nM | 118 nM | COc1ccc(C(=O)N2c3ncnn3C(c3ccccc3)CC2c2ccc(C)cc2)cc1OC (stereo unspecified) | > 10 µM | > 25 µM
525 nM | > 10000 nM | 708 nM | 1200 nM | ~377 nM | CN(C)Cc1ccc(NC(=O)c2cc(F)cc3c(=O)c4cc(F)ccc4[nH]c23)cc1 | > 10 µM | 2.86 µM
195 nM | 257 nM | 269 nM | 309 nM | 429 nM | Oc1ccccc1CCN[C@H]1CCc2ccc(F)cc21 | > 10 µM | > 25 µM
3020 nM | > 10000 nM | 1320 nM | 1200 nM | 702 nM | CCCCN(CC)CCNC(=O)C1CCN(C2=NS(=O)(=O)C(c3ccc(OC)cc3)=C2C)CC1 | > 10 µM | > 25 µM
562 nM | 891 nM | 977 nM | 1020 nM | 3230 nM | CC(C)CC[C@@H](CCNCCN(C)C)c1ccc(Cl)cc1 | > 10 µM | 14.9 µM
692 nM | 2040 nM | 1230 nM | 1290 nM | 2150 nM | C[C@H]1CCN(c2nc(-c3ccccn3)nc3c2CCC3)C1 | > 10 µM | 4.75 µM
776 nM | 1450 nM | 1000 nM | 1100 nM | 845 nM | COc1ccc2nc(O)c(C(=O)Nc3ccc4c(c3F)CCNC4)cc2c1 | 5.62 µM | 2.27 µM
3800 nM | > 10000 nM | 1660 nM | 3020 nM | 2070 nM | O=C(CN1CCC[C@H]1C1CCCC1)NCC1CCCCC1 | > 10 µM | > 25 µM
1550 nM | 6460 nM | 1550 nM | 2820 nM | 751 nM | COc1ccc(CC(=O)Nc2cc(C)n(-c3cccc(Cl)c3)n2)cc1 | > 10 µM | > 25 µM
3980 nM | > 10000 nM | 1950 nM | 6920 nM | 575 nM | O=C(c1cscn1)N1CC[C@H](Oc2cccc(Cl)c2)C1 | > 10 µM | > 25 µM
1000 nM | 8910 nM | 708 nM | 794 nM | 663 nM | CCn1cnc2c(N3CCC[C@H](c4ccncc4)C3)ncnc21 | > 10 µM | > 25 µM
4070 nM | > 10000 nM | > 10000 nM | 6170 nM |  | COc1nc(N2[C@@H]3CC[C@H]2C[C@@H](OC)C3)ncc1F | > 10 µM | 
3800 nM | 1910 nM | > 10000 nM | > 10000 nM |  | Cc1ccc(-c2cc(C(=O)Nc3nnc(C(C)C)s3)no2)cc1F | > 10 µM | 
4680 nM | > 10000 nM | > 10000 nM | 8710 nM |  | CC(C)C(=O)Nc1ccc(-c2cc(-c3ccc(NC(=O)C(C)C)cc3)nc(-c3ccncc3)n2)cc1 | > 10 µM | 
1660 nM | 4070 nM | 2630 nM | 3630 nM |  | COc1ccc(CNCCC2C(C)CN(C)C(C)C2Cc2ccccc2)cc1 (stereo unspecified) | > 10 µM | 
263 nM | > 10000 nM | 372 nM | 513 nM |  | CCc1ccc(/C=C/c2c[nH]c3ccccc23)[n+](CC)c1 | > 10 µM | 
1380 nM | > 10000 nM | 1000 nM | 2240 nM |  | COc1ccc(-c2c[n+](-c3ccc(Cl)cc3)c3n2CCCCC3)cc1 | > 10 µM | 
4070 nM | 832 nM | > 10000 nM | > 10000 nM |  | COc1cccc(N2C(=O)C[C@]3(CC3(c3ccccc3)c3ccccc3)C2=O)c1 | > 10 µM | 
1740 nM | 2690 nM | 2820 nM | 3240 nM |  | c1ccc(C(c2ccccc2)N2CCN(c3nn4cnnc4c4ccccc34)CC2)cc1 | > 10 µM | 
3980 nM | 2400 nM | > 10000 nM | > 10000 nM |  | COc1ccc(CCNc2oc(-c3cccnc3)nc2C#N)cc1OC | > 10 µM | 
6.17 nM | 1950 nM | > 10000 nM | 10.5 nM |  | O=C(Nc1[nH]c(=O)ncc1F)c1cccc2ccccc12 | > 10 µM | 
3020 nM | > 10000 nM | 9550 nM | 10000 nM |  | COc1ccccc1-n1c(=O)n(C2CCCC2)c(=O)c2c1ncn2Cc1ccccc1Cl | > 10 µM | 

IC50 (Plasmodium falciparum [1]) | IC50 (Plasmodium falciparum [2]) | IC50 (Plasmodium falciparum [3]) | IC50 (Plasmodium falciparum [6]) | IC50 (Plasmodium falciparum [7]) | SMILES | IC50 at 72 h [4] | IC50 at 72 h [5]
2290 nM | 5750 nM | 7590 nM | 10000 nM |  | CCc1ccc(-c2cc3n(n2)C[C@@](C)(C(=O)NC2CCCCC2)N(c2cc(C)cc(C)c2)C3=O)cc1 | > 10 µM | 
1380 nM | 2880 nM | 1450 nM | 2630 nM |  | Cc1cc(N2CC(OCc3ccccc3)C2)nc(Nc2cccc(O)c2)n1 | > 10 µM | 
2690 nM | > 10000 nM | 3720 nM | 7410 nM |  | CCNC(=O)N1CC[C@H](Oc2ccc3ccccc3n2)C1 | > 10 µM | 
1910 nM | 3090 nM | 2820 nM | 5890 nM |  | CC(=O)c1cccc(NC(=O)[C@@]23CCC(=O)N2c2ccccc2C(=O)N3C)c1 | > 10 µM | 
1480 nM | 575 nM | > 10000 nM | > 10000 nM |  | COc1cccc(-c2nc(C)c(C(=O)Nc3nc(C(C)C)n[nH]3)s2)c1 | > 10 µM | 
2630 nM | 5500 nM | 6920 nM | 7410 nM |  | Cc1ccc(N2C(=O)c3ccccc3[C@@H]2c2c[nH]c3ccccc23)cc1 | > 10 µM | 
8910 nM | > 10000 nM | 10500 nM | 2750 nM |  | Cc1ccc(C2c3ccsc3CCN2CCC(=O)N2CCN(C(=O)Cc3cccs3)C(C)C2)cc1 (stereo unspecified) | > 10 µM | 
955 nM | 5010 nM | 1200 nM | 2340 nM |  | CC(C)[C@@H]1CC[C@H](C)C[C@H]1OC(=O)Cn1cc(-c2ccc(Cl)cc2)[n+]2c1CCC2 | > 10 µM | 
1860 nM | 3240 nM | 2690 nM | 7590 nM |  | O=S(=O)(c1ccc(F)c(Cl)c1)N1CC[C@H](Oc2ccncc2Cl)C1 | > 10 µM | 
3980 nM | > 10000 nM | 5620 nM | 6920 nM |  | Nc1nc2c(s1)CN(CCc1ccccc1)CC2 | > 10 µM | 
2.75 nM | 2040 nM | > 10000 nM | 3.47 nM |  | O=c1[nH]c(=O)n(S(=O)(=O)c2ccccc2)cc1F | > 10 µM | 
3800 nM | > 10000 nM | 4900 nM | 2240 nM |  | O=C(N[C@@H](CN1CCCC1)c1ccccc1)N1CCC(c2ccn[nH]2)CC1 | > 10 µM | 
> 10000 nM | 1700 nM | > 10000 nM | > 10000 nM |  | CCn1c(-c2cc(NC(=O)c3ccc4c(c3)OCO4)[nH]n2)cc2ccc(OC)cc21 | > 10 µM | 
1740 nM | 2950 nM | 1480 nM | 2140 nM |  | CN1CCN([C@H]2CCN(c3ccnc4ccc(Cl)cc34)C[C@H]2CCCO)CC1 | > 10 µM | 
2690 nM | 1950 nM | > 10000 nM | > 10000 nM |  | COc1ccc(-c2c(C)nn3c(N4CCC(C(=O)NC5CC5)CC4)cc(C)nc23)cc1OC | > 10 µM | 
955 nM | 8320 nM | 3090 nM | 2140 nM |  | Cc1cc(=O)[nH]c(-n2nc(C3CC3)cc2NC(=O)C(c2ccccc2)c2ccccc2)n1 | 7.59 µM | 
2140 nM | 3630 nM | 5130 nM | 6760 nM |  | Cc1ccc(S(=O)(=O)Nc2c(S(=O)(=O)c3ccccc3)c3nc4ccccc4nc3n2CCc2ccccc2)cc1 | > 10 µM | 
912 nM | > 10000 nM | 2510 nM | 2040 nM |  | CC(CC1OCC(C[N+]2(Cc3ccccc3)CCCCC2)O1)CC(C)(C)C (stereo unspecified) | > 10 µM | 
5890 nM | 1350 nM | > 10000 nM | > 10000 nM |  | CCOC(=O)c1cc(F)cc(S(=O)(=O)Nc2ccnc3ncnn23)c1 | > 10 µM | 
794 nM | > 10000 nM | 2000 nM | 871 nM |  | O=C(Nc1cccc2cccnc12)c1ccccn1 | 3.47 µM | 
2190 nM | 2450 nM | 5130 nM | 3980 nM |  | O=C(N[C@H]1CC[C@@H]2CCC[C@@H]21)c1c[nH]c(=O)c(Cl)c1 | > 10 µM | 
1580 nM | 513 nM | > 10000 nM | > 10000 nM |  | O=C(c1ccc2c(c1)OCO2)N1CCn2c1nc1ccccc12 | > 10 µM | 

SMILES | IC50 (Plasmodium falciparum [1]) | IC50 (Plasmodium falciparum [2]) | IC50 (Plasmodium falciparum [3]) | IC50 (Plasmodium falciparum [6]) | IC50 (Plasmodium falciparum [7]) | IC50 at 72 h [4] | IC50 at 72 h [5]
c1cc(N2CC[C@@]3(CCCNC3)C2)c2sccc2n1 | 479 nM | 617 nM | 398 nM | 389 nM | 580 nM | > 10 µM | > 14.2 µM
Cc1ccc2c(c1)CCCN2C(=O)CN1CC=C(c2cnn(C)c2)CC1 | 3720 nM | > 10000 nM | 1740 nM | 3800 nM | 777 nM | > 10 µM | > 25 µM
